These results are taken from ChEMBL document CHEMBL1201862, “PubChem BioAssay data set” (2004).

Among the test systems are NCI/ADR-RES; RXF 393; SR; LOX IMVI; CAKI-1; SN12C; HL-60; HOP-62; CCRF-CEM; MDA-MB-231; OVCAR-8; PC-3; SNB-19; SW-620; KM12; K562; NCI-H226; SF-295; HCT-116; SK-MEL-28.
Holding throughout (experiment): NCI-60 cell line screen, 48 h

SMILES strings stand for the structures.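 All cell lines were grown in 96-well plates and treated with compound for 48 hours. GI50 = concentration required for 50% inhibition of growth.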 Calls of active or inactive are those of the source. Rule as the data show it: active = GI50 up to about 1.1 µM and inactive = higher. Some results are limits rather than exact numbers.

With `COc1ccc2nc3cc(Cl)ccc3c(NCCCN(CCCl)CCCl)c2c1`, the GI50 was < 0.01 µM (active) with NCI/ADR-RES; 0.0107 µM (active) in the assay with RXF 393; < 0.01 µM (active) with SR; 0.0126 µM (active) with LOX IMVI; < 0.01 µM (active) in the assay with CAKI-1; 0.014 µM (active) in the assay on SN12C. Moreover, the GI50 is < 0.01 µM (active) in the assay with HL-60; 0.0301 µM (active) with HOP-62; < 0.01 µM (active) in the assay with CCRF-CEM; 0.0316 µM (active) with MDA-MB-231; 0.0125 µM (active) in the assay on OVCAR-8; < 0.01 µM (active) in the assay on PC-3. Also, the GI50 in the assay on SNB-19 is 0.0225 µM (active); in the assay on SW-620, 0.0116 µM (active); in the assay on KM12, 0.052 µM (active); in the assay on K562, 0.0123 µM (active); with NCI-H226 it was 0.0385 µM (active); in the assay with SF-295 it was 0.0142 µM (active). Also, the GI50 is 0.012 µM (active) in the assay with HCT-116 and 0.197 µM (active) with SK-MEL-28.

Turning to `CC1(C)C=C(/C=N/Nc2ccc(Br)cc2)C(C#N)=C(O)C1(C#N)C#N`, the GI50 in the assay with NCI/ADR-RES is 45.2 µM (inactive); in the assay with RXF 393, 33.8 µM (inactive); in the assay with SR, 26.4 µM (inactive); in the assay on LOX IMVI, 64.6 µM (inactive); in the assay with CAKI-1 it was 36.1 µM (inactive); with SN12C, 59.8 µM (inactive). The GI50 in the assay on HL-60 was 26.1 µM (inactive); in the assay on HOP-62 it was 63 µM (inactive); in the assay on CCRF-CEM it was 35.8 µM (inactive); with MDA-MB-231, 39.5 µM (inactive); with OVCAR-8, 52.5 µM (inactive); in the assay on PC-3, 21.2 µM (inactive). The GI50 in the assay with SNB-19 is > 100 µM (inactive); in the assay with SW-620, 36.5 µM (inactive); in the assay with KM12 it was 29.9 µM (inactive); with K562 it was 17.7 µM (inactive); in the assay on NCI-H226, 88.3 µM (inactive); in the assay with SF-295, > 100 µM (inactive). The GI50 was 32.2 µM (inactive) in the assay on HCT-116 and 81.8 µM (inactive) with SK-MEL-28.

Regarding `CCOP(=O)(OCC)C(C)(CC)NC1=NC(C(F)(F)F)(C(F)(F)F)NC(=O)N1` (stereo not given), the GI50 with NCI/ADR-RES, in the assay with RXF 393, in the assay on SR, with LOX IMVI, in the assay on CAKI-1 and in the assay with SN12C was > 100 µM (inactive) throughout. Further, the GI50 in the assay with HL-60, with HOP-62, in the assay with CCRF-CEM, with MDA-MB-231, in the assay with OVCAR-8 and in the assay with PC-3 was > 100 µM (inactive) each time. In addition, the GI50 in the assay with SNB-19 was > 100 µM (inactive); in the assay on SW-620 it was > 100 µM (inactive); in the assay with KM12 it was > 100 µM (inactive); with K562, > 100 µM (inactive); in the assay on NCI-H226, 11.3 µM (inactive); in the assay with SF-295 it was > 100 µM (inactive). Moreover, the GI50 in the assay with HCT-116 and in the assay on SK-MEL-28 was > 100 µM (inactive) each time.

For `CSCCC(N)C(=O)NCCNc1ccc(NCCNC(=O)C(N)CCSC)c2c1C(=O)c1ccccc1C2=O` (stereo not given), the GI50 in the assay with NCI/ADR-RES is 2.21 µM (inactive); in the assay with RXF 393, 1.91 µM (inactive); with SR it was 0.197 µM (active); with LOX IMVI it was 0.624 µM (active); in the assay with CAKI-1, 1.03 µM (active); with SN12C, 0.374 µM (active). Further, the GI50 is 0.746 µM (active) with HL-60; 0.783 µM (active) in the assay on HOP-62; 0.528 µM (active) in the assay with CCRF-CEM; 1.16 µM (inactive) with MDA-MB-231; 0.441 µM (active) in the assay on OVCAR-8; 1.84 µM (inactive) with PC-3. Besides, the GI50 in the assay on SNB-19 is 0.927 µM (active); in the assay on SW-620, 1 µM (active); in the assay with KM12, 1.27 µM (inactive); in the assay on K562, 1.42 µM (inactive); in the assay on NCI-H226, 1.08 µM (active); with SF-295 it was 1.57 µM (inactive). In addition, the GI50 in the assay with HCT-116 was 0.424 µM (active); in the assay on SK-MEL-28, 1.75 µM (inactive).
